Laboratory results taken from ChEMBL document CHEMBL1125556, “Fluoroquinolones: relationships between structural variations, mammalian cell cytotoxicity, and antimicrobial activity” (J Med Chem, 1992).
Converted amounts (≈) assume the structure as drawn.

Columns and labels:
[1] = system: V79; test: Mammalian cell cytotoxicity test in chinese hamster V79 cells (clonogenic cytotoxicity); format: functional, cell-based
[2] = Antibacterial activity against five Gram-negative bacteria; format: functional
[3] = Cricetulus griseus, V79, read-out: IC50

Row | Structure (SMILES) | IC50 [1, 3] [µg/mL] | MIC ([2]; read-out: MIC) [µg/mL] | IC50 ([1]; v79) [µg/mL] | MIC [2] [µg/mL]
1 | CC1(CN)CCN(c2c(F)cc3c(=O)c(C(=O)O)cn(C4CC4)c3c2C(F)(F)F)C1 (centres undefined) | 110 (≈ 257 µM) | 1 (≈ 2.34 µM) | – | –
2 | NC1CCCN(c2c(F)cc3c(=O)c(C(=O)O)cn(C4CC4)c3c2F)C1 (centres undefined) | 53 (≈ 146 µM) | 0.13 (≈ 0.358 µM) | – | –
3 | NC1CCCN(c2c(F)cc3c(=O)c(C(=O)O)cn(C4CC4)c3c2Cl)C1 (centres undefined) | 24 (≈ 63.2 µM) | 0.07 (≈ 0.184 µM) | – | –
4 | NC1CCCN(c2nc3c(cc2F)c(=O)c(C(=O)O)cn3C2CC2)C1 (centres undefined) | 100 (≈ 289 µM) | 0.4 (≈ 1.15 µM) | – | –
5 | Nc1c(N2CCC(N)C2)c(F)cc2c(=O)c(C(=O)O)cn(C3CC3)c12 (centres undefined) | 260 (≈ 751 µM) | 0.53 (≈ 1.53 µM) | – | –
6 | CC1CN(c2c(F)cc3c(=O)c(C(=O)O)cn(C4CC4)c3c2C(F)(F)F)CC(C)N1 (centres undefined) | > 500 | 0.91 (≈ 2.13 µM) | – | –
7 | COc1c(N2CCCC2)c(F)cc2c(=O)c(C(=O)O)cn(C3CC3)c12 | 150 (≈ 433 µM) | 0.3 (≈ 0.866 µM) | – | –
8 | NC1CCN(c2c(F)cc3c(=O)c(C(=O)O)cn(-c4ccc(F)cc4F)c3c2Cl)C1 (centres undefined) | 89 (≈ 203 µM) | 0.23 (≈ 0.525 µM) | – | –
9 | NC1CCN(c2c(F)cc3c(=O)c(C(=O)O)cn(C4CC4)c3c2[N+](=O)[O-])C1 (centres undefined) | 69 (≈ 183 µM) | 0.46 (≈ 1.22 µM) | – | –
10 | CCNCC1CCN(c2c(F)cc3c(=O)c(C(=O)O)cn(C4CC4)c3c2[N+](=O)[O-])C1 (centres undefined) | 67 (≈ 160 µM) | 1.05 (≈ 2.51 µM) | – | –
11 | O=C(O)c1cn(C2CC2)c2c(C(F)(F)F)c(N3CCCC3)c(F)cc2c1=O | 280 (≈ 729 µM) | 12.5 (≈ 32.5 µM) | – | –
12 | CC1(N)CCN(c2c(F)cc3c(=O)c(C(=O)O)cn(C4CC4)c3c2C(F)(F)F)C1 (centres undefined) | 110 (≈ 266 µM) | 1 (≈ 2.42 µM) | – | –
13 | NC1CCN(c2nc3c(cc2F)c(=O)c(C(=O)O)cn3C2CC2)CC1 | 100 (≈ 289 µM) | 0.23 (≈ 0.664 µM) | – | –
14 | CC1CN(c2c(F)cc3c(=O)c(C(=O)O)cn(-c4ccc(F)cc4F)c3c2C(F)(F)F)CCN1 (centres undefined) | > 500 | 4.14 (≈ 8.53 µM) | – | –
15 | C=Cn1cc(C(=O)O)c(=O)c2cc(F)c(N3CCC(N)C3)c(F)c21 (centres undefined) | 310 (≈ 925 µM) | 0.13 (≈ 0.388 µM) | – | –
16 | CCNCC1CCN(c2cc3c(c(N)c2F)c(=O)c(C(=O)O)cn3C2CC2)C1 (centres undefined) | 61 (≈ 157 µM) | 0.35 (≈ 0.901 µM) | – | –
17 | NCC1CCN(c2nc3c(cc2F)c(=O)c(C(=O)O)cn3C2CC2)C1 (centres undefined) | 51 (≈ 147 µM) | 0.14 (≈ 0.404 µM) | – | –
18 | O=C(O)c1cn(-c2ccc(F)cc2F)c2cc(N3CCNCC3)c(F)cc2c1=O | > 500 | 0.11 (≈ 0.273 µM) | – | –
19 | CC1CN(c2c(F)cc3c(=O)c(C(=O)O)cn(C4CC4)c3c2Cl)CCN1 (centres undefined) | 45 (≈ 118 µM) | 0.08 (≈ 0.211 µM) | – | –
20 | CCNCC1CCN(c2c(F)cc3c(=O)c(C(=O)O)cn(C4CC4)c3c2C(F)(F)F)C1 (centres undefined) | 120 (≈ 272 µM) | 0.6 (≈ 1.36 µM) | – | –
21 | NC1CCN(c2c(F)cc3c(=O)c(C(=O)O)cn(C4CC4)c3c2F)CC1 | 23 (≈ 63.3 µM) | 0.2 (≈ 0.55 µM) | – | –
22 | CC1CN(c2c(F)cc3c(=O)c(C(=O)O)cn(-c4ccc(F)cc4F)c3c2Cl)CCN1 (centres undefined) | > 500 | 2.07 (≈ 4.58 µM) | – | –
23 | CC1CN(c2nc3c(cc2F)c(=O)c(C(=O)O)cn3C2CC2)CC(C)N1 (centres undefined) | 250 (≈ 694 µM) | 0.17 (≈ 0.472 µM) | – | –
24 | CCNCC1CCN(c2c(F)cc3c(=O)c(C(=O)O)cn(CCO)c3c2F)C1 (centres undefined) | > 500 | 50 (≈ 126 µM) | – | –
25 | CC1CN(c2c(F)cc3c(=O)c(C(=O)O)cn(C4CC4)c3c2C(F)(F)F)CCN1 (centres undefined) | 220 (≈ 532 µM) | 0.6 (≈ 1.45 µM) | – | –
26 | CCNCC1CCN(c2c(F)cc3c(=O)c(C(=O)O)cn(C4CC4)c3c2N)C1 (centres undefined) | 290 (≈ 747 µM) | 0.91 (≈ 2.34 µM) | – | –

Row | Structure (SMILES) | IC50 [1, 3] [µg/mL] | MIC ([2]; read-out: MIC) [µg/mL] | IC50 ([1]; v79) [µg/mL] | MIC [2] [µg/mL]
27 | COc1c(N2CCC(C)(N)C2)c(F)cc2c(=O)c(C(=O)O)cn(-c3ccc(F)cc3F)c12 (centres undefined) | 250 (≈ 559 µM) | 0.46 (≈ 1.03 µM) | – | –
28 | CC1(CN)CCN(c2c(F)cc3c(=O)c(C(=O)O)cn(C4CC4)c3c2F)C1 (centres undefined) | 8 (≈ 21.2 µM) | 0.13 (≈ 0.344 µM) | – | –
29 | CCNCC1CCN(c2c(F)cc3c(=O)c(C(=O)O)cn(C4CC4)c3c2F)C1 (stereo in doubt; 12) [PD-117558] | 11 (≈ 28.1 µM) | 0.05 (≈ 0.128 µM) | – | –
30 | CCNCC1CCN(c2cc3c(cc2F)c(=O)c(C(=O)O)cn3-c2ccc(F)cc2F)C1 (stereo in doubt; 17) | – | – | 190 (≈ 427 µM) | 0.8 (≈ 1.8 µM)
31 | NC1CCN(c2c(F)cc3c(=O)c(C(=O)O)cn(C4CC4)c3c2F)C1 (stereo in doubt; 21) | 30 (≈ 85.9 µM) | 0.04 (≈ 0.115 µM) | – | –
32 | NC1CCN(c2cc3c(cc2F)c(=O)c(C(=O)O)cn3C2CC2)C1 (stereo in doubt; 24a) | 72 (≈ 217 µM) | 0.09 (≈ 0.272 µM) | – | –
33 | NC1CCN(c2c(F)cc3c(=O)c(C(=O)O)cn(C4CC4)c3c2F)C1 (stereo in doubt; 24b) | – | – | 30 (≈ 85.9 µM) | 0.04 (≈ 0.115 µM)
34 | NC1CCN(c2c(F)cc3c(=O)c(C(=O)O)cn(C4CC4)c3c2Cl)C1 (stereo in doubt; 24c) [CLINAFLOXACIN] | 26 (≈ 71.1 µM) | 0.03 (≈ 0.082 µM) | – | –
35 | COc1c(N2CCC(N)C2)c(F)cc2c(=O)c(C(=O)O)cn(C3CC3)c12 (stereo in doubt; 24d) | – | 0.07 (≈ 0.194 µM) | 45 (≈ 125 µM) | –
36 | NC1CCN(c2c(F)cc3c(=O)c(C(=O)O)cn(C4CC4)c3c2C(F)(F)F)C1 (stereo in doubt; 24e) | – | – | 300 (≈ 751 µM) | 0.2 (≈ 0.501 µM)
37 | CCNCC1CCN(c2cc3c(cc2F)c(=O)c(C(=O)O)cn3C2CC2)C1 (stereo in doubt; 26a) | 160 (≈ 428 µM) | 0.46 (≈ 1.23 µM) | – | –
38 | CCNCC1CCN(c2c(F)cc3c(=O)c(C(=O)O)cn(C4CC4)c3c2Cl)C1 (stereo in doubt; 26c) | – | 0.14 (≈ 0.343 µM) | 11 (≈ 27 µM) | –
39 | CCNCC1CCN(c2c(F)cc3c(=O)c(C(=O)O)cn(C4CC4)c3c2OC)C1 (stereo in doubt; 26d) | 22 (≈ 54.5 µM) | 0.26 (≈ 0.644 µM) | – | –
40 | CCNCC1CCN(c2cc3c(cc2F)c(=O)c(C(=O)O)cn3-c2ccc(F)cc2F)C1 (stereo in doubt; 36b) | 190 (≈ 427 µM) | 0.8 (≈ 1.8 µM) | – | –
41 | NC1CCN(c2cc3c(cc2F)c(=O)c(C(=O)O)cn3C2CC2)C1 (stereo in doubt; 44) | – | – | 72 (≈ 217 µM) | 0.09 (≈ 0.272 µM)
42 | NC1CCN(c2c(F)cc3c(=O)c(C(=O)O)cn(C4CC4)c3c2C(F)(F)F)C1 (stereo in doubt; 45) | 300 (≈ 751 µM) | 0.2 (≈ 0.501 µM) | – | –
43 | NC1CCN(c2c(F)cc3c(=O)c(C(=O)O)cn(C4CC4)c3c2Cl)C1 (stereo in doubt; 46) [CLINAFLOXACIN] | – | – | 26 (≈ 71.1 µM) | 0.03 (≈ 0.082 µM)
44 | COc1c(N2CCC(N)C2)c(F)cc2c(=O)c(C(=O)O)cn(C3CC3)c12 (stereo in doubt; 47) | – | – | 44 (≈ 122 µM) | 0.07 (≈ 0.194 µM)
45 | CCNCC1CCN(c2c(F)cc3c(=O)c(C(=O)O)cn(C4CC4)c3c2OC)C1 (stereo in doubt; 68) | – | – | 22 (≈ 54.5 µM) | 0.26 (≈ 0.644 µM)
46 | O=C(O)c1cn(C2CC2)c2cc(N3CCNCC3)c(F)cc2c1=O [CIPROFLOXACIN] | 380 (≈ 1150 µM) | 0.1 (≈ 0.302 µM) | 380 (≈ 1150 µM) | 0.1 (≈ 0.302 µM)
47 | CN1CCN(c2c(F)cc3c(=O)c(C(=O)O)cn(CCF)c3c2F)CC1 [FLEROXACIN] | > 500 | 0.35 (≈ 0.948 µM) | – | –
48 | CCNCC1CCN(c2c(F)cc3c(=O)c(C(=O)O)cn(CC)c3c2F)C1 (centres undefined) [MERAFLOXACIN] | 160 (≈ 422 µM) | 0.2 (≈ 0.527 µM) | – | –
49 | CCn1cc(C(=O)O)c(=O)c2cc(F)c(N3CCNCC3)cc21 [NORFLOXACIN] | > 500 | 0.06 (≈ 0.188 µM) | – | –
50 | CC1COc2c(N3CCN(C)CC3)c(F)cc3c(=O)c(C(=O)O)cn1c23 (centres undefined) [OFLOXACIN] | > 500 | 0.2 (≈ 0.553 µM) | – | –
51 | NC1CCN(c2nc3c(cc2F)c(=O)c(C(=O)O)cn3-c2ccc(F)cc2F)C1 (centres undefined) [TOSUFLOXACIN] | 128 (≈ 317 µM) | 0.09 (≈ 0.223 µM) | – | –
